Experimental data reported in the supplement of paper PMC10307832.

What was measured:
Assay in all cases: relative viability (nuclei count vs DMSO), 5 days (fraction); higher = more cells survive
Vemurafenib + Pictilisib = compound: CCCS(=O)(=O)Nc1ccc(F)c(C(=O)c2c[nH]c3ncc(-c4ccc(Cl)cc4)cc23)c1F [Vemurafenib] + CS(=O)(=O)N1CCN(Cc2cc3nc(-c4cccc5[nH]ncc45)nc(N4CCOCC4)c3s2)CC1 [Pictilisib] (partner 1 µM)
Method in brief: (§1)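 One day after seeding in 1536-well plates, lung cancer cell lines were dosed by pin tool. Dosing was either single-drug or a fixed anchor-drug dose plus five library-drug doses (not always all listed) in √10 steps. After 5 days, nuclei were stained in one fix-and-stain step and counted on 4× images, and relative viability is the nuclei count of treated wells over that of vehicle wells, given as the median of duplicate plates.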

Vemurafenib + Linsitinib = compound: CCCS(=O)(=O)Nc1ccc(F)c(C(=O)c2c[nH]c3ncc(-c4ccc(Cl)cc4)cc23)c1F [Vemurafenib] + C[C@]1(O)C[C@@H](c2nc(-c3ccc4ccc(-c5ccccc5)nc4c3)c3c(N)nccn32)C1 [Linsitinib] (partner 1 µM)
Method in brief: as §1

Alpelisib + OSI-027 = compound: Cc1nc(NC(=O)N2CCC[C@H]2C(N)=O)sc1-c1ccnc(C(C)(C)C(F)(F)F)c1 [Alpelisib] + COc1cccc2cc(-c3nc([C@H]4CC[C@H](C(=O)O)CC4)n4ncnc(N)c34)[nH]c12 [OSI-027] (partner 0.5 µM)
Method in brief: as §1

Alpelisib + Phenformin = compound: Cc1nc(NC(=O)N2CCC[C@H]2C(N)=O)sc1-c1ccnc(C(C)(C)C(F)(F)F)c1 [Alpelisib] + N=C(N)NC(=N)NCCc1ccccc1 [Phenformin] (partner 250 µM)
Method in brief: as §1

Cell Line | relative viability (Vemurafenib + Pictilisib; first compound 0.03162 µM) | relative viability (Vemurafenib + Pictilisib; first compound 0.1 µM) | relative viability (Vemurafenib + Pictilisib; first compound 0.3162 µM) | relative viability (Vemurafenib + Pictilisib; first compound 1 µM) | relative viability (Vemurafenib + Linsitinib; first compound 0.03162 µM) | relative viability (Vemurafenib + Linsitinib; first compound 0.1 µM) | relative viability (Vemurafenib + Linsitinib; first compound 0.3162 µM) | relative viability (Vemurafenib + Linsitinib; first compound 1 µM) | relative viability (Alpelisib + OSI-027; first compound 0.04 µM) | relative viability (Alpelisib + OSI-027; first compound 0.1265 µM) | relative viability (Alpelisib + OSI-027; first compound 0.4 µM) | relative viability (Alpelisib + OSI-027; first compound 1.265 µM) | relative viability (Alpelisib + OSI-027; first compound 4 µM) | relative viability (Alpelisib + Phenformin; first compound 0.04 µM) | relative viability (Alpelisib + Phenformin; first compound 0.1265 µM) | relative viability (Alpelisib + Phenformin; first compound 0.4 µM) | relative viability (Alpelisib + Phenformin; first compound 1.265 µM) | relative viability (Alpelisib + Phenformin; first compound 4 µM)
NCI-H1355 | 0.419 | 0.426 | 0.377 | 0.395 | 0.713 | 0.709 | 0.801 | 0.758 | 0.406 | 0.325 | 0.311 | 0.285 | 0.235 | 0.421 | 0.404 | 0.438 | 0.433 | 0.332
NCI-H727 | 0.353 | 0.32 | 0.568 | 0.315 | 0.265 | 0.281 | 0.415 | 0.394 | 0.753 | 0.397 | 0.522 | 0.359 | 0.391 | 0.533 | 0.555 | 0.498 | 0.412 | 0.215
NCI-H2023 | 0.218 | 0.222 | 0.302 | 0.225 | 0.655 | 0.552 | 0.831 | 0.666 | 0.357 | 0.33 | 0.311 | 0.192 | 0.156 | 0.404 | 0.408 | 0.371 | 0.287 | 0.282
NCI-H2009 | 0.829 | 0.858 | 0.605 | 0.572 | 1.19 | 1.03 | 1.09 | 1.06 | 0.602 | 0.574 | 0.655 | 0.428 | 0.429 | 0.502 | 0.458 | 0.555 | 0.456 | 0.468
